# Reference: US20240270749A1, “1,2,4-TRIAZOLO[1,5-A]PYRIMIDINE-BASED SLC16A3 INHIBITORS AND THEIR THERAPEUTIC USE” (CEMM - FORSCHUNGSZENTRUM FÜR MOLEKULARE MEDIZIN GMBH, priority 2021, published 2024)
# Entries after “also recorded” stand apart in the source; their conditions may differ. Read-outs that look alike come from different tables or passages of the source.
# Tests used:
# [1] = tested on: HAP1 dependent on SLC16A7; assay: Viability of HAP1 cells dependent on SLC16A7; assay type: cell-based; conditions: SLC16A7 overexpressed in HAP1 SLC16A3^−/−, SLC16A1 knocked out
# Description: To test this, the inventors overexpressed SLC16A7 or SLC16A8 in HAP1 SLC16A3^−/− cells and knocked out SLC16A1 using CRISPR/Cas9. […]
# HAP1 SLC16A3^−/− cells [2] = assay: Synthetic lethality guided viability screening (CellTiter Glo), HAP1 SLC16A3-/- cells (SLC16A1-dependent); assay type: cell-based; conditions: for IC50: Homo sapiens, HAP1, 72 hours, Cell titer glo, from dose response curves, read-out: HAP1 SLC16A31^−/− IC50
# Description: (§1) Compounds were printed to individual wells of 384 well plates (Corning) with Echo acoustic liquid dispenser (Labcyte). HAP1 cells were seeded using a dispenser (Thermo Fischer Scientific) in density 1,000 cells per well in 50 μl. As controls, DMSO or Bortezomib treatments were used. Viability of cells was assessed after 72 hours with CellTiter Glo (Promega) and % of controls were calculated based on RLU values in DMSO (100%) and Bortezomib (0%) wells. First screening was performed in 10 μM final concentration. Second screening was performed in technical duplicates, in 4 point dose response setting, with concentrations ranging from 13-0.5 μM. Third screening was performed in technical triplicates in 6 point dose response setting, with concentrations ranging from 27-0.11 μM. LAMA84 cells were used in density 3,000 cells per well. AZD3965, BAY-8002, syrosingopine and compounds obtained from third party vendors were tested in 96 well plates, with 2,500 cells per well with manual seeding and treatment. Compound efficacy was determined either by comparing % of control, or by IC50 estimation based on dose response curves (calculated with R package drc, or with GraphPad Prism).
# (§2) Table 1: Results of synthetic lethality guided chemical screening assay. HAP1 WT, HAP1 SLC16A1^−/− or HAP1 SLC16A3^−/− cell lines were treated with presented compounds for 72 hours and viability was determined by Cell titer glo assay (Promega). Data are presented either as a percentage of viability in HAP1 SLC16A1^−/− cells compared to controls (DMSO=100% and Bortezomib=0%) upon single dose treatment (10 μM) or as IC50 values obtained from dose response curves.
# HAP1 WT cells = assay: Synthetic lethality guided viability screening (CellTiter Glo), HAP1 WT cells; assay type: cell-based; conditions: Homo sapiens, 72 hours, Cell titer glo, from dose response curves
# Description: as §1, §2
# HAP1 SLC16A1^−/− cells [3] = assay: Synthetic lethality guided viability screening (CellTiter Glo), HAP1 SLC16A1-/- cells (SLC16A3-dependent); assay type: cell-based; conditions: for IC50 / viability at 10 µM: Homo sapiens; for IC50: from dose response curves; for viability at 10 µM: read-out: HAP1 SLC16A1^−/− % of viability
# Description: as §1, §2
# HAP1 SLC16A1^−/− cells [4] = assay: Growth curve, HAP1 SLC16A1-/- cells; assay type: cell-based; conditions: different concentrations; counted 24 h, 48 h, 72 h
# Description: Cells were seeded in 6 well plate in density of 15,000 cells per well in the presence of different concentrations of tested compounds in DMSO, or matching DMSO concentrations. Cells were washed with PBS, harvested with trypsin and counted with CASY counter (Roche) 24 h, 48 h and 72 h after the seeding. Cell number obtained at 24 h was set as 0, for each time point and concentration two wells were harvested and counted.
# NCIH358 cells = assay: Lactate Glo lactate accumulation, NCIH358 lung cancer cells; assay type: cell-based; conditions: 10 μM, 6 hours
# Description: (§3) Protocol for lactate glo was modified based on Benjamin D et al., Cell Reports, 2018, 25(11):3047-3058.e4. Cells were seeded in 96 well plate in density 30,000 cells per well. Next day cells were treated with tested compounds, AZD3965 and syrosingopine (all in final concentration of 10 μM) or DMSO. After 6 hours of incubation at 37° C., cells were washed twice with PBS, lysed with 0.2N HCl, neutralized with 1M Tris-base (Sigma) and incubated for 1 hour at RT with lactate glo reagents (Promega). Lactate accumulation was then estimated based on luminescence signal.
# NCIH441 cells = assay: Lactate Glo lactate accumulation, NCIH441 lung cancer cells; assay type: cell-based; conditions: 10 μM, 6 hours
# Description: as §3
# HAP1 SLC16A3^−/− cells [5] = assay: Lactate Glo lactate accumulation, HAP1 SLC16A3-/- cells; assay type: cell-based; conditions: 10 μM, 6 hours
# Description: as §3
# [6] = tested on: cells dependent on SLC16A3 in HAP1 and LAMA84 cell lines; assay: Selectivity counter screen, HAP1 and LAMA84 cell line panel; assay type: cell-based; conditions: panel incl. LAMA84 sgRen/sgSLC16A1/sgSLC16A3, HAP1 dependent on SLC16A7 or SLC16A8, rescue lines
# Description: as §1
# To get further insights into the selectivity and mode of action of these hits, the inventors created a selection of compounds with similar structure to their hits from the whole library and tested those further. […]
# SLC16A3 = molecular target: T1, SLC16A3 (Homo sapiens, UniProt O15427); assay: Cellular Thermal Shift Assay (CETSA), HEK293T lysates with HIBIT-tagged SLC16A3; assay type: binding; conditions: HEK293T lysate, HIBIT-tagged SLC16A3, split-nano luciferase readout
# T1 construct: expressed in transfected cells; lysate supernatant used
# T1 sequence (O15427 1-465): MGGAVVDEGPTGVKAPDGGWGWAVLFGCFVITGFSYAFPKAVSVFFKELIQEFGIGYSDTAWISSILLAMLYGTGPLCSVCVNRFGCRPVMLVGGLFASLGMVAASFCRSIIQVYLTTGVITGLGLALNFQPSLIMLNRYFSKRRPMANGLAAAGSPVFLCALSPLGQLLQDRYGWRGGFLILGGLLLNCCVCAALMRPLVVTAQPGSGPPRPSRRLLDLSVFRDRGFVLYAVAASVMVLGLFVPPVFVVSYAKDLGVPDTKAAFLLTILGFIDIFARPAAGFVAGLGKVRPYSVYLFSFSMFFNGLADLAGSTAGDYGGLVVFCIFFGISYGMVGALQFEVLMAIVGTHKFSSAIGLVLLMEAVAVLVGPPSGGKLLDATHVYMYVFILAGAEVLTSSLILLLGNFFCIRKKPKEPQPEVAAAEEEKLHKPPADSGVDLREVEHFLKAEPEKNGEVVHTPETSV
# Description: HEK293T cells with stable expression of HIBIT-tagged SLC16A3 were lysed as described in Hashimoto M et al., ACS Chemical Biology, 2018, 13(6):1480-86. Lysates were then centrifugated at 14,000 RPM, 20 min at 4° C. Supernatant were next incubated with tested compounds or DMSO on ice for 1 hour. After that samples were aliquoted to PCR strips, heated in gradient thermocycler for 6 min and let cool down at room temperature (RT) for 3 min. Samples were then centrifugated at 14,000 RPM, 40 min at 4° C. and protein abundance in supernatants was determined using HIBIT lytic detection system (Promega) in 384 well plate. Reagents for HIBIT detection were diluted in lysis buffer (Hashimoto M et al., loc. cit.) instead of buffer provided with kit. All measurements were done in technical triplicate.
# HAP1 SLC16A1^−/− cells [7] = assay: Lactate Glo lactate accumulation, HAP1 SLC16A1-/- cells; assay type: cell-based; conditions: 10 μM, 6 hours
# Description: as §3
# [8] = HAP1, single dose 10 μM, 72 hours, Cell titer glo, compared to controls DMSO=100%, Bortezomib=0%
SMILES,IC50 (HAP1 WT cells) [µM],"IC50 (HAP1 SLC16A1^−/− cells [3]; HAP1, 72 hours, Cell titer glo) [µM]",IC50 (HAP1 SLC16A3^−/− cells [2]) [µM],also measured
"Cc1[nH]nc(C(F)(F)F)c1Cc1sc2c(c1C(=O)N1C[C@](C)(O)CO1)c(=O)n(C)c(=O)n2C(C)C [AZD3965, reference compound]",,,,killing of HAP1 cells dependent on SLC16A7 (in words) [1]: can be killed; effect on viability of HAP1 SLC16A3^−/− cells (in words) (HAP1 SLC16A3^−/− cells [2]): reduced viability
"O=C(Nc1ccccc1C(=O)O)c1cc(S(=O)(=O)c2ccccc2)ccc1Cl [BAY-8002, reference compound]",,,,killing of HAP1 cells dependent on SLC16A7 (in words) [1]: can be killed; effect on viability of HAP1 SLC16A3^−/− cells (in words) (HAP1 SLC16A3^−/− cells [2]): reduced viability
Cc1ccc(NC(=O)CCc2c(C)nc3nc(C(F)(F)F)nn3c2C)cc1 [Compound 1],> 30,3.32,> 30,
Cc1cc(C)cc(NC(=O)CCc2c(C)nc3nc(C(F)(F)F)nn3c2C)c1 [Compound 2],> 30,4.13,> 30,
CSc1nc2nc(C)c(CCC(=O)Nc3ccc(C)cc3)c(C)n2n1 [Compound 3],> 30,2.34,> 30,
CSc1nc2nc(C)c(CCC(=O)Nc3cc(C)cc(C)c3)c(C)n2n1 [Compound 4],> 30,1.83,> 30,
Cc1cc(NC(=O)CCc2c(C)nc3nc(C(F)(F)F)nn3c2C)ccc1N1CCN(C)CC1 [Compound 5],> 30,5.87,> 30,
Cc1nc2nc(C(F)(F)F)nn2c(C)c1CCC(=O)Nc1ccc(S(=O)(=O)N2CCCC2)cc1 [Compound 6],> 30,0.41,> 30,
Cc1nc2nc(C(F)(F)F)nn2c(C)c1CCC(=O)Nc1ccncc1 [Compound 7],> 30,11.2,> 30,
Cc1nc2nc(C(F)(F)F)nn2c(C)c1CCC(=O)Nc1cnc2ccccc2c1 [Compound 8],> 30,0.25,> 30,growth rate / proliferation of HAP1 SLC16A1^−/− cells (HAP1 SLC16A1^−/− cells [4]): confirmed the growth reducing effect; also recorded: slowed down the proliferation in a dose-dependent manner; lactate accumulation in NCIH358 cells (NCIH358 cells): confirmed the lactate accumulation in both cell lines; lactate accumulation in NCIH441 cells (NCIH441 cells): confirmed the lactate accumulation in both cell lines
Cc1nc2ncnn2c(C)c1CCC(=O)Nc1ccc(S(=O)(=O)N2CCCCCC2)cc1 [Compound 9],> 30,1.98,> 30,
CCOc1ccc(NC(=O)CCc2c(C)nc3ncnn3c2C)cc1 [Compound 10],> 30,7.07,> 30,viability at 10 µM (HAP1 SLC16A1^−/− cells [3]; [8]): 70.8%
Cc1nc2nc(C)c(CCC(=O)Nc3ccc(Br)c(C)c3)c(C)n2n1 [Compound 11],,,,viability at 10 µM (HAP1 SLC16A1^−/− cells [3]; [8]): 33.7%
CCc1cccc(NC(=O)CCc2c(C)nc3nc(C)nn3c2C)c1 [Compound 12],,,,viability at 10 µM (HAP1 SLC16A1^−/− cells [3]; [8]): 36.4%
Cc1nc2nc(C)c(CCC(=O)Nc3ccc(C)c(C)c3)c(C)n2n1 [Compound 13],,,,lactate accumulation in HAP1 SLC16A3^−/− cells (HAP1 SLC16A3^−/− cells [5]): no accumulation was observed; also recorded: did not affect lactate accumulation; viability at 10 µM (HAP1 SLC16A1^−/− cells [3]; [8]): 37%; selective killing in HAP1 and LAMA84 cell line panel (in words) [6]: selectively kill only cells dependent on SLC16A3; shift in melting temperature of SLC16A3 (CETSA) (SLC16A3): showed a shift in melting temperature of SLC16A3; lactate accumulation in HAP1 SLC16A1^−/− cells (HAP1 SLC16A1^−/− cells [7]): lactate accumulation comparable to control (syrosingopine); also recorded: significant lactate accumulation was observed
CCc1ccc(NC(=O)CCc2c(C)nc3nc(C)nn3c2C)cc1 [Compound 14],,,,viability at 10 µM (HAP1 SLC16A1^−/− cells [3]; [8]): 37.5%
CCOc1ccc(NC(=O)CCc2c(C)nc3nc(C)nn3c2C)cc1 [Compound 15],,,,"viability at 10 µM (HAP1 SLC16A1^−/− cells [3]; HAP1, 72 h): 38.5%"
Cc1nc2nc(C)c(CCC(=O)Nc3ccc(Br)cc3)c(C)n2n1 [Compound 16],,,,viability at 10 µM (HAP1 SLC16A1^−/− cells [3]; [8]): 38.7%
COc1ccc(NC(=O)CCc2c(C)nc3nc(C)nn3c2C)cc1 [Compound 17],,,,"viability at 10 µM (HAP1 SLC16A1^−/− cells [3]; HAP1, 72 h): 44.4%"
Cc1nc2nc(C(F)(F)F)nn2c(C)c1CCC(=O)Nc1cccnc1 [Compound 18],> 30,8.41,> 30,
Cc1nc2nc(C(F)(F)F)nn2c(C)c1CCC(=O)Nc1ccccc1 [Compound 19],> 30,8.94,> 30,
"CCOC(=O)Oc1c(OC)cc(C(=O)O[C@@H]2C[C@@H]3CN4CCc5c([nH]c6cc(OC)ccc56)[C@H]4C[C@@H]3[C@H](C(=O)OC)[C@H]2OC)cc1OC [syrosingopine, reference compound]",,,,effect on viability of HAP1 SLC16A1^−/− cells (in words) (HAP1 SLC16A1^−/− cells [3]): decreased viability
